Tests used:
NIH3T3 cells = experiment: NIH3T3 cell proliferation; type: cell-based
Experimental: Cells were treated for 24 hours and proliferation was measured via ^3H-thymidine incorporation pre- and post-treatment. Data for each cell line were normalized to ^3H counts measured pre-treatment. […] Ac-DDDD-Tat is a control peptide for Lys-CoA-Tat. WM35, WM983A, and 1205Lu are melanoma cell lines representing three stages of cancer progression: radial, vertical, and metastatic, respectively.

[1] = target: AANAT (arylalkylamine N-acetyltransferase) (Ovis aries, UniProt Q29495); experiment: AANAT coupled spectrophotometric assay; type: biochemical; conditions: 10 μM compound; read-out: Percent inhibition of acetyltransferase, AANAT
AANAT (arylalkylamine N-acetyltransferase), sequence (Q29495 whole entry): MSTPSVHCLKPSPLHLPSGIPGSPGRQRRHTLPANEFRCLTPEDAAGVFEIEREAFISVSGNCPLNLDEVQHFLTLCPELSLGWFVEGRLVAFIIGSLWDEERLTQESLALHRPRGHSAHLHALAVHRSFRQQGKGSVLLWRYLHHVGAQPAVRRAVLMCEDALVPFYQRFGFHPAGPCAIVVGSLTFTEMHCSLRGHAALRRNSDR

yeast GCN5 = target: T1, yeast GCN5 (Saccharomyces cerevisiae, UniProt Q03330); experiment: GCN5 direct radioactive HAT assay; type: biochemical; conditions: 10 μM compound; read-out: Percent inhibition of acetyltransferase, GCN5
T1 construct: made in house
T1 sequence (Q03330 whole entry): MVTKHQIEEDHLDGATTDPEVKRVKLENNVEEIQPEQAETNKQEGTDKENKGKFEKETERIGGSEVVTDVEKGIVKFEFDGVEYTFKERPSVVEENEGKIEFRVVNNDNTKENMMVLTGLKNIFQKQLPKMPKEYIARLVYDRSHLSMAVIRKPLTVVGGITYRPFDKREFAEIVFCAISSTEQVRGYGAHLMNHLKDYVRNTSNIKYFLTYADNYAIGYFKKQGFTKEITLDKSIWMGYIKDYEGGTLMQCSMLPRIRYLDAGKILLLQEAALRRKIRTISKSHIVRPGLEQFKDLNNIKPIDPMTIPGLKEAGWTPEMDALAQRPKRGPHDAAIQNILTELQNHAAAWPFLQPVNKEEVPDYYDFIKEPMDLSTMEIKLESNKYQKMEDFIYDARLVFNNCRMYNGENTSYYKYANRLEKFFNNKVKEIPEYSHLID
Experimental: (§1) PCAF reactions were performed in 100 mM HEPES, pH 7.9, and contained 200 μM TPP, 5 mM MgCl2, 1 mM DTT, 50 mM NaCl, 0.05 mg/mL BSA, 200 μM NAD, 2.4 mM α-KG, 30 μM acetyl-CoA, 0.037 units α-KGDH, 3.3% DMSO, and 10 μM inhibitor. Reactions took place at 30° C. Reactions were initiated by addition of 10 nM PCAF and were followed at 340 nm over the linear portion of the curve below 10% turnover. AANAT reactions were performed in 100 mM NH4 OAc, pH 6.8, and contained 200 μM TPP, 5 mM MgCl2, 1 mM DTT, 50 mM NaCl, 0.05 mg/mL BSA, 200 μM NAD, 2.4 mM α-KG, 200 μM AcCoA, 0.1 units α-KGDH, 3.3% DMSO, and 10 μM inhibitor. Reactions took place at 25° C. Reactions were initiated with addition of 65 nM AANAT, and followed at 340 nm, as above. Percent inhibition values were compared to those with p300, which were repeated using the protocol given above. […]
(§2) HAT assays with yeast GCN5, SAS complex, MOZ, and Rtt109/Vps75 complex used the direct radioactive assay described above. […] The amount of enzyme used in each assay was estimated by comparing Coomassie Blue staining of samples with bovine serum albumin standards, analyzed by SDS-PAGE. […] The rate of ^14C-incorporation into histone H3 was quantified by autoradiography. […]

WM35 melanoma cells [2] = experiment: senescence-associated beta galactosidase staining; type: cell-based, human; conditions: 72 hours, low and high serum concentrations
Experimental: (§3) FIG. 14A includes scatter plots. […] WM35 melanoma cells were also treated with camptothecin as a positive control for apoptosis. FIGS. 14B and 14C include images of the treated cells stained for senescence-associated beta galactosidase.

WM35 melanoma cells [3] = experiment: apoptosis, annexin V and propidium iodide FACS; type: cell-based, human; conditions: 72 hours, low serum concentrations
Experimental: as §3

D54 glioblastoma cells = experiment: AlamarBlue growth inhibition, D54; type: cell-based; conditions: D54, 72 hours
Experimental: Dose response curves were generated using the AlamarBlue® assay (Invitrogen, Carlsbad, Calif.).
When inhibition was assessed using the AlamarBlue® assay (Invitrogen, Carlsbad, Calif.), cells were initially seeded at 500 cells per well in a 96-well plate. AlamarBlue® is a non-toxic reagent that measures cellular metabolic activity. Its main ingredient is resazurin, a non-fluorescent indicator dye that is reduced to bright red-fluorescent resorufin in metabolically active cells. AlamarBlue® was added to growth medium at 1/10 of the total volume (e.g., 20 μl in 200 μl total volume). […] Fluorescence reading was taken from the same plate every day for 5 days to ensure that the saturation point was not reached. Fluorescence intensity is proportional to the number of live cells in the plate.

[4] = target: PCAF (p300/CBP-associated factor) (Homo sapiens, UniProt Q92831); experiment: PCAF coupled spectrophotometric assay; type: biochemical; conditions: 10 μM compound; read-out: Percent inhibition of acetyltransferase, PCAF
PCAF (p300/CBP-associated factor), sequence (Q92831 493-658 limits assumed, species assumed): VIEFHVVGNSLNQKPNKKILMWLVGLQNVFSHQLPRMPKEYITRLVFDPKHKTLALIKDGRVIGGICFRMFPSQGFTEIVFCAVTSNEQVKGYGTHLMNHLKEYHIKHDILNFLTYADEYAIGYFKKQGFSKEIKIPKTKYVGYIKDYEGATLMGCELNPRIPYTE

Sas2/4/5 complex = target: T2, Sas2/4/5 complex (Saccharomyces cerevisiae, UniProt P40963); experiment: SAS complex direct radioactive HAT assay; type: biochemical; conditions: 10 μM compound; read-out: Percent inhibition of acetyltransferase, Sas
T2 construct: made in house; host or cells: E. coli BL21-CodonPlus(DE3)-RIL
T2 sequence (P40963 whole entry): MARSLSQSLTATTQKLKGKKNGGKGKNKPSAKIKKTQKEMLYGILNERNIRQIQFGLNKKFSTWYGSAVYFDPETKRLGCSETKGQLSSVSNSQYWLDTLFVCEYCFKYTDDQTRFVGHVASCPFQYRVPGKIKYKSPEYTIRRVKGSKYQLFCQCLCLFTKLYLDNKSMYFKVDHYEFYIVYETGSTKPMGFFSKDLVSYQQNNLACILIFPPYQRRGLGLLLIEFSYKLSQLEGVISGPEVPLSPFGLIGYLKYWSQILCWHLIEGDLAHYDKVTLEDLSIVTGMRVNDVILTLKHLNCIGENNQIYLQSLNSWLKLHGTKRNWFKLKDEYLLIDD
T2 sequence (Q04003 whole entry partner): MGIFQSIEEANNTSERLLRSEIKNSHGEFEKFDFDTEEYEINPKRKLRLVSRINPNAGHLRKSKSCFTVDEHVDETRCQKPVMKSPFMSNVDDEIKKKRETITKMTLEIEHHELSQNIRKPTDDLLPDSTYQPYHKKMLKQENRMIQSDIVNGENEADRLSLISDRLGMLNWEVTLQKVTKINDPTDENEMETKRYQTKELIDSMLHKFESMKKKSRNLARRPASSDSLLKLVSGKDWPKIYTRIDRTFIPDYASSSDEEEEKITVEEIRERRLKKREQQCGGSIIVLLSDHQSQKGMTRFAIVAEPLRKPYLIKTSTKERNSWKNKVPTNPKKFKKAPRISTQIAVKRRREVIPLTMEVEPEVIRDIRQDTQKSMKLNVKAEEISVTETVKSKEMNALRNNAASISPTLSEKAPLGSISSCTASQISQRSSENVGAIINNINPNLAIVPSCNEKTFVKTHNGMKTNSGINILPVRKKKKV
T2 sequence (Q99314 whole entry partner): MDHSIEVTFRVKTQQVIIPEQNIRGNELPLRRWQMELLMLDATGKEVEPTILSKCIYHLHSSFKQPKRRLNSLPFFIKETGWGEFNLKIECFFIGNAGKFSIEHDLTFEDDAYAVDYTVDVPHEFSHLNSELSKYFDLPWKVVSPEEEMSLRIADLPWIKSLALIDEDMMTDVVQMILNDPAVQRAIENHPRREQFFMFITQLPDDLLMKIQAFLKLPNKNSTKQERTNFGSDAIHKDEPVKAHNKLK
Experimental: as §1, §2

[5] = tested on: NCI-60 panel of tumor cell lines; experiment: NCI-60 DTP human tumor cell line screen; type: cell-based; conditions: 48 hours
Experimental: The in vitro cancer screen was performed at the National Cancer Institute as described in detail at http://dtp.nci.nih.gov/branches/btb/ivelsp.html.
Briefly, cells were plated in 96 well plates at a concentration of 5,000-40,000 cells/well. […] Using the absorbance measurements [time zero, (Tz), control growth, (C), and test growth in the presence of drug at the five concentration levels (Ti)], the percentage growth was calculated at each of the drug concentrations levels. Percentage growth inhibition was calculated as: [(Ti−Tz)/(C−Tz)]×100 for concentrations for which Ti≧Tz [(Ti−Tz)/Tz]×100 for concentrations for which Ti<Tz where Tz is time zero, C is control growth, and Ti is test growth in the presence of drug at the five concentration levels.

inhibition at 10 µM [1]: < 10% | inhibition at 10 µM (yeast GCN5): < 10% | IC50 (D54 glioblastoma cells): 9.3 µM | inhibition at 10 µM [4]: < 10% | inhibition at 10 µM (Sas2/4/5 complex): < 10%
SMILES: CC1=NN(c2ccc(C(=O)O)cc2)C(=O)C1=Cc1ccc(-c2cc(C)c(C)cc2[N+](=O)[O-])o1 [Compound C646, 4-(4,5-dihydro-3-methyl-4-((5-(4,5-dimethyl-2-nitrophenyl)furan-2-yl)methylene)-5-oxopyrazol-1-yl)benzoic acid]
effect on cell proliferation (NIH3T3 cells): does not have a significant inhibitory effect | senescence (WM35 melanoma cells [2]): induced sensecence in WM35 cells | apoptosis (WM35 melanoma cells [3]): induced WM35 cell apoptosis | growth inhibition / cell death [5]: significant growth inhibition and/or tumor cell death

Reference: US9005670B2, “Use of histone acetyltransferase inhibitors as novel anti-cancer therapies” (The Johns Hopkins University, priority 2010, dated 2015)
